Test results from US10017538B2, “Bioactive peptides having insecticide activity” (The United States of America, as represented by the …, priority 2016, dated 2018).

Test system: Solenopsis invicta workers
Test: Injection bioassay of peptides in fire ant workers, adult mortality
Format: in vivo
Conditions: peptide with Cys-Cys S-S bond in insect saline, injected into fire ant workers
Experimental: Peptides identified herein are injected into the hemocoel of Solenopsis invicta workers using a Nanoliter 2000™ System (World Precision Instruments) with pulled borosilicate needles.
(§1) To determine the negative impact these peptides may have against fire ants, synthesis of potential candidates of small peptides with Cysteine-Cysteine S—S bond at the N- and C-terminal ends of SEQ ID NO: 2 and SEQ ID NO: 14. Synthesis of the peptides is described above. These peptides were dissolved in an insect saline (composition in mM: NaCl 126, KCl 5.4, NaH2PO4 0.17 and KH2PO4 0.22, pH 7.4) or the saline only control were injected into fire ant workers and phenotypic effects monitored.
as §1, with “NO:2-SEQ” for “NO: 2 and SEQ”, “NO:14.” for “NO: 14.”

| Substance | adult mortality compared to the saline control |
| --- | --- |
| CGSHFC (Synthetically generated peptide) [SEQ ID NO: 14, short synthetically generated peptide] | did not affect adult mortality |
| CLKIGSHFC (Synthetically generated peptide) [SEQ ID NO: 3, synthetically generated peptide, loop-constrained by flanking cysteines] | significant increase in adult mortality |
| CIQQGSHFC (Synthetically generated peptide) [SEQ ID NO: 4, synthetically generated peptide, loop-constrained by flanking cysteines] | significant increase in adult mortality |
| CMARYMSAC (Synthetically generated peptide) [SEQ ID NO: 11, synthetically generated peptide, loop-constrained by flanking cysteines] | significant increase in adult mortality |
| CRGATPMSC (Synthetically generated peptide) [SEQ ID NO: 12, synthetically generated peptide, loop-constrained by flanking cysteines] | significant increase in adult mortality |
| CQKIGSHFC (Synthetically generated peptide) [SEQ ID NO: 2, synthetically generated peptide, loop-constrained by flanking cysteines] | increase in adult mortality |
